# Square brackets hold non-standard residues; d marks the D form. Peptide text beside a SMILES is read from it. * marks the point of attachment. ξ: configuration not given here. Propanoyl(3-(3-pyridyl)) = O=C(CCc1cccnc1)*; His(τ-Me) = Cn1cnc(C[C@H](N)C(=O)O)c1; Sta = CC(C)C[C@H](N)[C@@H](O)CC(=O)O; NHC(Me)(CH2OH)2 = CC(CO)(CO)N*; NHC(CH2OH)3 = OCC(CO)(CO)N*; ξ3Pal = NC(Cc1cccnc1)C(=O)O; Isovaleryl = CC(C)CC(=O)*; Nle = CCCC[C@H](N)C(=O)O; Boc = CC(C)(C)OC(=O)*; X2 = OCC1(N*)CCCCC1; X1 = CC(C)(CO)N*
# Biological target: T1, human plasma renin activity (PRA) (Homo sapiens, UniProt P00797)
# T1 construct: from tissue; host or cells: human plasma pool
# T1 sequence (P00797 67-406): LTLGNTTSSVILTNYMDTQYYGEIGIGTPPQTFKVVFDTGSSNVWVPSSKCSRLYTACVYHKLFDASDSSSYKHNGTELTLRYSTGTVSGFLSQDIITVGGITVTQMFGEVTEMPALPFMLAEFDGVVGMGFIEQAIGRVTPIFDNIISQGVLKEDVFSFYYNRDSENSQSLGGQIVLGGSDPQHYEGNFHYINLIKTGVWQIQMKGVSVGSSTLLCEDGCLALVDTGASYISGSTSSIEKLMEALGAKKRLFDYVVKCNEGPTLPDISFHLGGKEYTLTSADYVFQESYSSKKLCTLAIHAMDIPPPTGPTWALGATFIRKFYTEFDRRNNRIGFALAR
# Assay: Inhibition of human plasma renin activity (PRA), angiotensin I released measured by radioimmunoassay
# Type: biochemical
# Settings: human plasma pool, 60 minutes at 37° C., phosphate buffer pH 7.4; IC50 evaluated in mol, expressed as -log IC50
# Description: The products according to the invention were studied for their therapeutic properties and especially their inhibitory action on enzymes. More particularly, the compounds were evaluated "in vitro" in terms of their inhibition of human plasma renin activity (PRA).
# The method of evaluation is based on that of GUYENE (J. Clin. Endocrinol. Metab., 1976, 43, 1301). The inhibition of PRA is evaluated from a human plasma pool rich in renin ([…] of angiotensin I released per milliliter per hour), incubated for 60 minutes at 37° C., in a phosphate buffer at pH 7.4, in the presence of increasing concentrations of the product to be studied.
# Human plasma contains the substrate angiotensinogen and the enzyme:renin. The angiotensin I released during the reaction is measured by radioimmunoassay: Plasma Renin Activity Kit from Travenol (nos. CA 533, 553). An inhibitor of the conversion enzyme, phenylmethylsulfonyl fluoride (PMSF), is added to the incubation medium. The total incubation volume is 555 microliters made up as follows:
# 420 microliters of human plasma
# 11 to 50 microliters of the product to be studied, at variable concentrations
# […] microliters of phosphate buffer 5 microliters of PMSF.
# A 1N solution of acetic acid in methanol (19/1 by volume) and a 1N solution of sodium hydroxide in methanol (2/1 by volume) are prepared. In a mixture of equal volumes of these 2 solutions, a 0.001M stock solution of the product to be studied is prepared. The subsequent dilutions are then made up in the phosphate buffer.
# The results are expressed as their logarithmic value (-log IC50).
row,Structure (SMILES),IC50
1,CCCC[C@H](NC(=O)[C@H](Cc1ccccc1)NC(=O)OC(C)(C)C)C(=O)N[C@@H](CC(C)C)[C@@H](O)CC(=O)N[C@H](C(=O)NC(C)(C)CO)[C@@H](C)CC [SR 43 686] (Boc-F[Nle][Sta]I-X1),6.03 nM
2,CCCC[C@H](NC(=O)[C@H](Cc1ccccc1)NC(=O)OC(C)(C)C)C(=O)N[C@@H](CC1CCCCC1)[C@@H](O)CC(=O)N[C@H](C(=O)NC(C)(CO)CO)[C@@H](C)CC [SR 43 721],7.76 nM
3,CC[C@H](C)[C@H](NC(=O)C[C@H](O)[C@H](CC(C)C)NC(=O)C(Cc1cccnc1)NC(=O)[C@H](Cc1ccccc1)NC(=O)OC(C)(C)C)C(=O)NC(C)(CO)CO (some centres unmarked) [SR 43 763] (Boc-F[ξ3Pal][Sta]I-{NHC(Me)(CH2OH)2}),77.6 nM
4,CCCC[C@H](NC(=O)[C@H](Cc1ccccc1)NC(=O)OC(C)(C)C)C(=O)N[C@@H](CC(C)C)[C@@H](O)CC(=O)N[C@H](C(=O)NC1(CO)CCCCC1)[C@@H](C)CC [SR 43 799] (Boc-F[Nle][Sta]I-X2),5.5 nM
5,CCCC[C@H](NC(=O)[C@H](Cc1ccccc1)NC(=O)OC(C)(C)C)C(=O)N[C@@H](CC(C)C)[C@@H](O)CC(=O)N[C@@H](C)C(=O)NC(C)(C)CO [SR 43 860] (Boc-F[Nle][Sta]A-X1),33.1 nM
6,CC[C@H](C)[C@H](NC(=O)C[C@H](O)[C@H](CC(C)C)NC(=O)[C@H](Cc1cn(C)cn1)NC(=O)[C@H](Cc1ccccc1)NC(=O)CCc1cccnc1)C(=O)NC(C)(C)CO [SR 43 966] ({Propanoyl(3-(3-pyridyl))}-F[His(τ-Me)][Sta]I-X1),19.1 nM
7,CCCC[C@H](NC(=O)[C@H](Cc1ccccc1)NC(=O)OC(C)(C)C)C(=O)N[C@@H](CC(C)C)[C@@H](O)CC(=O)N[C@H](C(=O)NC(CO)(CO)CO)[C@@H](C)CC [SR 44 094] (Boc-F[Nle][Sta]I-{NHC(CH2OH)3}),18.2 nM
8,CC[C@H](C)[C@H](NC(=O)C[C@H](O)[C@H](CC1CCCCC1)NC(=O)[C@H](Cc1nc2ccccc2[nH]1)NC(=O)[C@H](Cc1ccccc1)NC(=O)OC(C)(C)C)C(=O)NC(C)(CO)CO [SR 44 125],36.3 nM

# Results, then the compound that gave them:
row,IC50,Structure (SMILES)
1,3.98 nM,CCCC[C@H](NC(=O)[C@H](Cc1ccccc1)NC(=O)OC(C)(C)C)C(=O)N[C@@H](Cc1ccccc1)[C@@H](O)CC(=O)N[C@H](C(=O)NC(CO)(CO)CO)[C@@H](C)CC [SR 43 576]
2,3.55 nM,CCCC[C@H](NC(=O)[C@H](Cc1ccccc1)NC(=O)CCc1cccnc1)C(=O)N[C@@H](CC(C)C)[C@@H](O)CC(=O)N[C@H](C(=O)NC(C)(CO)CO)[C@@H](C)CC [SR 43 707] ({Propanoyl(3-(3-pyridyl))}-F[Nle][Sta]I-{NHC(Me)(CH2OH)2})
3,2.63 nM,CCCC[C@H](NC(=O)[C@H](Cc1ccccc1)NC(=O)OC(C)(C)C)C(=O)N[C@@H](CC(C)C)[C@@H](O)CC(=O)N[C@H](C(=O)NC(C)(CO)CO)[C@@H](C)CC [SR 43 574] (Boc-F[Nle][Sta]I-{NHC(Me)(CH2OH)2})
4,2.14 nM,CC[C@H](C)[C@H](NC(=O)C[C@H](O)[C@H](CC(C)C)NC(=O)[C@H](Cc1c[nH]cn1)NC(=O)[C@H](Cc1ccccc1)NC(=O)CCc1cccnc1)C(=O)NC(C)(CO)CO [SR 43 737] ({Propanoyl(3-(3-pyridyl))}-FH[Sta]I-{NHC(Me)(CH2OH)2})
5,0.479 nM,CCCC[C@H](NC(=O)[C@H](Cc1ccccc1)NC(=O)CCc1cccnc1)C(=O)N[C@@H](Cc1ccccc1)[C@@H](O)CC(=O)N[C@H](C(=O)NC(CO)(CO)CO)[C@@H](C)CC [SR 43 603]

# Biological target: T2, renin (Homo sapiens, UniProt P00797)
# T2 sequence (P00797 67-406): T1 sequence (P00797 67-406)
# Assay: not given
# Settings: cited from earlier work
row,Structure (SMILES),affinity for renin
1,"CC(C)CC(=O)N[C@H](C(=O)N[C@H](C(=O)N[C@@H](CC(C)C)[C@@H](O)CC(=O)N[C@@H](C)C(=O)N[C@@H](CC(C)C)[C@@H](O)CC(=O)O)C(C)C)C(C)C [Pepstatin, isovaleryl-L-valyl-L-valyl-statyl-L-alanyl-statin] (Isovaleryl-VV[Sta]A[Sta]-OH)",low affinity for renin
